Measurements reported in patent US9447083B2, “N-acylhydrazone derivatives for selective T cell inhibitor and anti-lymphoid malignancy drug” (CHONG KUN DANG PHARMACEUTICAL CORP., priority 2012, dated 2016).

tested on: Jurkat T cells; assay: Pro-apoptotic activity on Jurkat T cells (FITC-Annexin V / 7-AAD flow cytometry); assay type: cell-based; settings: Homo sapiens, 72 hours, cells stained with FITC-Annexin V and 7-AAD among total cells, read-out: Cell Apoptosis Effect to Jurkat T Cell (% in 5 μM)
Description: In order to investigate the effects of the prepared compounds, the apoptosis-inducing effects of the compounds on human T cell acute lymphoblastic leukemia cell line, Jurkat T cells, were evaluated in the following manner.
Jurkat T cells cultured in RPMI medium containing 10% fetal bovine serum (FBS) were collected and stained with trypan blue (Sigma). […] Then, the cells were centrifuged at 1200 rpm at room temperature for 5 minutes and re-suspended in 10% FBS-containing RPMI medium at a concentration of 1.5×10^5 cells/mL. 200 μL of the cell suspension was dispensed into each well of a flat bottom 96-well plate (Costar). Then, the cells were treated with 10 μL of the diluted compounds in RPMI medium at final concentrations of […] or 5 μM, and incubated in a 5% CO2 incubator at 37° C. for 72 hours. In a vehicle control group, the cells were treated with 10 μL of RPMI medium containing 1% of dimetylsulfoxide (DMSO, Sigma). The incubated cells were harvested, put into 5-mL FACS tubes (BD Falcon), washed with 1 mL of phosphate buffered saline (PBS), and then re-suspended in 0.1 mL of binding buffer (10 mM Hepes-NaOH, pH 7.4, 140 mM NaCl, […] CaCl2). The suspended cells were stained with fluorescein isothiocyanate (FITC)-Annexin V (BD Biosciences) and 7-amino-actinomycin D (7-AAD, e-Biosciences) at room temperature for 15 minutes. The stained cells were suspended in 0.3 mL of binding buffer and analyzed by a flow cytometer. Apoptosis was determined by the ratio (%) of cells stained with FITC-Annexin V and 7-AAD among the total cells (see Tables 10 and 11).

SMILES | cytotoxicity at 5 µM
Cc1ccccc1OCC(=O)N/N=C/c1cccc2[nH]ccc12 [Compound 013, (E)-N′-((1H-indol-4-yl)methylene)-2-(o-tosyloxy)acetohydrazide] | 100%
Cc1ccccc1OCC(=O)N/N=C/c1ccc2[nH]ccc2c1 [Compound 014] | 100%
Cc1ccccc1OCC(=O)N/N=C/c1ccc2cc[nH]c2c1 [Compound 034] | 90%
Cc1ccccc1OCC(=O)N/N=C/c1ccc2c(ccn2CN(C)C)c1 [Compound 072] | 95%
Cc1cc(Br)cc(C)c1OCC(=O)N/N=C/c1ccc2[nH]ccc2c1 [Compound 092, (E)-N′-((1H-indol-5-yl)methylene)-2-(4-bromo-2,6-dimethylphenoxy)acetohydrazide] | 100%
Cc1ccccc1OCC(=O)N/N=C/c1ccc2[nH]cnc2c1 [Compound 100] | 90%
Cc1cc(C)c(OCC(=O)N/N=C/c2cc3ccccc3[nH]2)c(C)c1 [Compound 109, (E)-N′-((1H-indol-2-yl)methylene)-2-(mesityloxy)acetohydrazide] | 100%
Cc1cc(Br)cc(C)c1OCC(=O)N/N=C/c1cccc2[nH]ccc12 [Compound 112, (E)-N′-((1H-indol-4-yl)methylene)-2-(4-bromo-2,6-dimethylphenoxy)acetohydrazide] | 100%
Cc1cccc(C)c1OCC(=O)N/N=C/c1cccc2[nH]ccc12 [Compound 118, (E)-N′-((1H-indol-4-yl)methylene)-2-(2,6-dimethylphenoxy)acetohydrazide] | 100%
CC(C)c1cccc(C(C)C)c1OCC(=O)N/N=C/c1cccc2[nH]ccc12 [Compound 121, (E)-N′-((1H-indol-4-yl)methylene)-2-(2,6-diisopropylphenoxy)acetohydrazide] | 100%
Cc1cc(C(C)(C)C)c(OCC(=O)N/N=C/c2cccc3[nH]ccc23)c(C(C)(C)C)c1 [Compound 127, (E)-N′-((1H-indol-4-yl)methylene)-2-(2,6-di-tert-butyl-4-methylphenoxy)acetohydrazide] | 100%
Cc1cc(Br)cc(C)c1OCC(=O)N/N=C/c1ccc2cc[nH]c2c1 [Compound 133, (E)-N′-((1H-indol-6-yl)methylene)-2-(4-bromo-2,6-dimethylphenoxy)acetohydrazide] | 100%
Cc1cc(C)c(NCC(=O)N/N=C/c2cccc3[nH]ccc23)c(C)c1 [Compound 135, (E)-N′-((1H-indol-4-yl)methylene)-2-(mesitylamino)acetohydrazide] | 100%
Cc1cc(C)c(NCC(=O)N/N=C/c2c[nH]c3ccccc23)c(C)c1 [Compound 136] | 100%
Cc1cc(-c2cccnc2)cc(C)c1OCC(=O)N/N=C/c1cccc2[nH]ccc12 [Compound 137, (E)-N′-((1H-indol-4-yl)methylene)-2-(2,6-dimethyl-4-(pyridin-3-yl)phenoxy)acetohydrazide] | 100%
Cc1cc(-c2cccnc2)cc(C)c1OCC(=O)N/N=C/c1c[nH]c2ccccc12 [Compound 138] | 90%
Cc1cc(-c2cccnc2)cc(C)c1OCC(=O)N/N=C/c1ccc2cc[nH]c2c1 [Compound 139, (E)-N′-((1H-indol-6-yl)methylene)-2-(2,6-dimethyl-4-(pyridin-3-yl)phenoxy)acetohydrazide] | 100%
O=C(COc1ccccc1-c1cccnc1)N/N=C/c1cccc2[nH]ccc12 [Compound 146, (E)-N′-((1H-indol-4-yl)methylene)-2-(2-(pyridin-3-yl)phenoxy)acetohydrazide] | 100%
Cc1cc(C)c(SCC(=O)N/N=C/c2cccc3[nH]ccc23)c(C)c1 [Compound 147, (E)-N′-((1H-indol-4-yl)methylene)-2-(mesitylthio)acetohydrazide] | 100%
Cc1cc(-c2cncnc2)cc(C)c1OCC(=O)N/N=C/c1cccc2[nH]ccc12 [Compound 149, (E)-N′-((1H-indol-4-yl)methylene)-2-(2,6-dimethyl-4-(pyrimidin-5-yl)phenoxy)acetohydrazide] | 100%
Cc1cc(-c2cnc(N)nc2)cc(C)c1OCC(=O)N/N=C/c1ccc2cc[nH]c2c1 [Compound 152, (E)-N′-((1H-indol-6-yl)methylene)-2-(4-(2-aminopyrimidin-5-yl)-2,6-dimethylphenoxy)acetohydrazide] | 90%
Cc1cc(Cl)cc(C)c1OCC(=O)N/N=C/c1cccc2[nH]ccc12 [Compound 155, (E)-N′-((1H-indol-4-yl)methylene)-2-(4-chloro-2,6-dimethylphenoxy)acetohydrazide] | 100%

SMILES | cytotoxicity at 5 µM
Cc1cc(Cl)cc(C)c1OCC(=O)N/N=C/c1c[nH]c2ccccc12 [Compound 156, (E)-N′-((1H-indol-3-yl)methylene)-2-(4-chloro-2,6-dimethylphenoxy)acetohydrazide] | 90%
Cc1cc(Cl)cc(C)c1OCC(=O)N/N=C/c1ccc2cc[nH]c2c1 [Compound 157, (E)-N′-((1H-indol-6-yl)methylene)-2-(4-chloro-2,6-dimethylphenoxy)acetohydrazide] | 100%
Cc1cc(C)c(SCC(=O)N/N=C/c2c[nH]c3ccccc23)c(C)c1 [Compound 158, (E)-N′-((1H-indol-3-yl)methylene)-2-(mesitylthio)acetohydrazide] | 100%
Cc1cc(C)c(SCC(=O)N/N=C/c2ccc3cc[nH]c3c2)c(C)c1 [Compound 159, (E)-N′-((1H-indol-6-yl)methylene)-2-(mesitylthio)acetohydrazide] | 100%
Cc1cc(C)c(OCC(=O)N(C)/N=C/c2cccc3c2ccn3C)c(C)c1 [Compound 164, (E)-2-(mesityloxy)-N-methyl-N′-((1-methyl-1H-indol-4-yl)methylene)acetohydrazide] | 100%
Cc1cc(C)c(OCC(=O)N(CCO)/N=C/c2cccc3[nH]ccc23)c(C)c1 [Compound 177, (E)-N′-((1H-indol-4-yl)methylene)-N-(2-hydroxyethyl)-2-(mesityloxy)acetohydrazide] | 100%
Cc1cc(C)c(OCC(=O)N/N=C/c2cccc3c2ccn3CCO)c(C)c1 [Compound 180, (E)-N′-((1-(2-hydroxyethyl)-1H-indol-4-yl)methylene)-2-(mesityloxy)acetohydrazide] | 90%
Cc1cc(C)c(OCC(=O)N/N=C/c2cccc3[nH]ccc23)c(-c2cccnc2)c1 [Compound 182, (E)-N′-((1H-indol-4-yl)methylene)-2-(2,4-dimethyl-6-(pyridin-3-yl)phenoxy)acetohydrazide] | 100%
Cc1cc(C)c(OCC(=O)N/N=C/c2ccc3cc[nH]c3c2)c(-c2cccnc2)c1 [Compound 183, (E)-N′-((1H-indol-6-yl)methylene)-2-(2,4-dimethyl-6-(pyridin-3-yl)phenoxy)acetohydrazide] | 100%
Cc1cc(C)c(OCC(=O)N/N=C/c2ccc3[nH]ccc3c2)c(-c2cccnc2)c1 [Compound 184, (E)-N′-((1H-indol-5-yl)methylene)-2-(2,4-dimethyl-6-(pyridin-3-yl)phenoxy)acetohydrazide] | 100%
Cc1ncccc1OCC(=O)N/N=C/c1cccc2[nH]ccc12 [Compound 187, (E)-N′-((1H-indol-4-yl)methylene)-2-((2-methylpyridin-3-yl)oxy)acetohydrazide] | 100%
Cc1ccnc(C)c1OCC(=O)N/N=C/c1cccc2[nH]ccc12 [Compound 190, (E)-N′-((1H-indol-4-yl)methylene)-2-(2,4-dimethylpyridin-3-yloxy)acetohydrazide] | 100%
Cc1ccnc(C)c1OCC(=O)N/N=C/c1ccc2cc[nH]c2c1 [Compound 191] | 100%
O=C(COc1ccccc1C(F)(F)F)N/N=C/c1cccc2[nH]ccc12 [Compound 192, (E)-N′-((1H-indol-4-yl)methylene)-2-(2-(trifluoromethyl)phenoxy)acetohydrazide] | 90%
O=C(COc1ccccc1C(F)(F)F)N/N=C/c1ccc2[nH]ccc2c1 [Compound 193] | 100%
O=C(COc1ccccc1C(F)(F)F)N/N=C/c1ccc2cc[nH]c2c1 [Compound 194] | 100%
Cc1cc(C)c(OCC(=O)N(CCO)/N=C/c2ccc3cc[nH]c3c2)c(C)c1 [Compound 195, (E)-N′-((1H-indol-6-yl)methylene)-N-(2-hydroxyethyl)-2-(mesityloxy)acetohydrazide] | 100%
O=C(COc1cccnc1Cl)N/N=C/c1cccc2[nH]ccc12 [Compound 196, (E)-N′-((1H-indol-4-yl)methylene)-2-(2-chloropyridin-3-yloxy)acetohydrazide] | 100%
Cc1cc(C)c(OCC(=O)N(CCN2CCOCC2)/N=C/c2ccc3cc[nH]c3c2)c(C)c1 [Compound 198] | 100%
Cc1cc(C)c(OCC(=O)N(CCN2CCCC2)/N=C/c2ccc3cc[nH]c3c2)c(C)c1 [Compound 201] | 100%
Cc1cc(C)c(OCC(=O)N/N=C/c2ccc3[nH]cnc3c2)c(C)c1 [Compound 205] | 100%
